In patent US20220401414A1, “TREATMENT AND PREVENTION OF A NEURODEGENERATIVE DISORDER” (Inflazome Limited, priority 2019, published 2022):

Legend:
[1] = test system: 6-OHDA mouse model of Parkinson's disease; assay: Studies C and D: amphetamine-induced ipsilateral rotations in the 6-OHDA mouse model; format: in vivo, C57BL6 mice; conditions: day 21 after 6-OHDA (12 μg)
Method: To determine the oral efficacy of the compound of formula (I) in the 6-OHDA mouse model of Parkinson's disease.
8-week-old C57BL6 male mice (obtained from ARC, Perth, Australia) were housed under a 12-h light cycle in a SPF climate-controlled facility with food and water provided ad libitum for two weeks prior to study initiation. For treatment with the compound of formula (I), mice were dosed via oral gavage. Ten (10) mice in each group were dosed at 3 or 1 mg/kg, starting the day before (24 hr prior) stereotaxic surgery, and then QD until sacrifice.
6-OHDA (Sigma) was prepared immediately prior to surgeries. A sterile saline (0.9%) solution containing ascorbic acid (0.2%) was used as the vehicle to dissolve 6-OHDA. […] In order to inject a final concentration of 12 μg into the right striatum, a working stock of 6 mg/ml was made injecting a final volume of 2 μl.
Mice were anaesthetized using ketamine (100 mg/kg, i.p.) and xylazine (10 mg/kg i.p.)
anesthesia and were placed into a stereotactic frame with nose and ear bars specially adapted for mice. The lesion was performed using a 5 μl Hamilton syringe to deliver either vehicle or 6-OHDA (12 μg) at the following coordinates relative to bregma: AP: −1.2 mm; ML: −1.7 mm; DV: 3.5 mm into the right dorsal striatum according to the stereotaxic atlas (“The mouse brain in stereotaxic coordinates” by Paxinos and Franklin, 1997). After drilling a 1 mm burr-hole in the skull, a 2 μl volume of solution was infused at the target site at the rate of 0.5 μl per minute. The needle was held in place for at least 5 minutes after injection to minimize retrograde flow along the needle tract. Mice were administered a subcutaneous injection of sterile Ringer's solution to is facilitate recovery and were placed on a heat-pad until complete recovery from anesthesia.
Amphetamine-induced ipsilateral rotations were performed at day 21 post-surgery. Mice were injected with 2 mg/kg of D-amphetamine and placed in circular glass bowls.
After an acclimatization period of five minutes, the net ipsilateral rotations over ten minutes were recorded and counted. Quantitation was performed from recorded videos by an investigator blinded to the treatment groups.
The aim of study D was to compare the neuroprotective efficacy of the compound of formula (I) with MCC95o in the mouse unilateral 6-OHDA model at 3 mg/kg. The amphetamine-induced ipsilateral rotations and striatal dopamine (DA) levels were assessed, using a protocol identical to that used for study C, with ten (10) mice in each group being dosed at 3 mg/kg for each drug, starting the day before (24 hr prior) stereotaxic surgery, and then daily throughout until sacrifice.

[2] = test system: PFF-Synuclein model of Parkinson's disease; assay: Study H: LC-MS/MS quantification of striatal dopamine and metabolites in the PFF-Synuclein mouse model; format: in vivo, C57BL6 mice; conditions: ipsilateral striatum, 12 months
Text: To determine the oral efficacy of the compound of formula (I) in a chronic progressive model of Parkinson's disease (PD), the preformed fibrils (PFF) mouse model, using a prophylactic and therapeutic dosing schedule.
8-week-old C57BL6 male mice (obtained from ARC, Perth, Australia) were housed under a 12-h light cycle in a SPF climate-controlled facility with food and water provided ad libitum for two weeks prior to study initiation. The compound of formula (I) (or water alone for control animals) was administrated to mice in drinking water at 0.3 mg/ml. Animals were separated into the groups described in Table 9, with ten animals initiated in each cohort. For prophylactic dosing, treatment commenced one day prior to PFF-Synuclein injection. For therapeutic dosing, treatment commenced 4 months after disease induction with PFF-Synuclein.
Recombinant human a-synuclein was obtained from rPeptide Inc., and in vitro fibril generation was performed with a final concentration of 2 mg/ml in phosphate-buffered saline (PBS) by incubation at 37° C. with agitation in an orbital mixer (400 rpm) for 7 days with daily cycles of sonication used to break down fibrillar aggregates as outlined in previously published reports (see Luk et al., Science, 2012, vol. 338(6109), pp. 949-53; and Zhang et al., Methods Mol. Biol., 2019, vol. 1948, pp. 45-57, which are incorporated in their entirety herein by reference). The generation of fibrillar α-synuclein species was confirmed by transmission electron microscopy and Thioflavin T fluorescence prior to use.
. The lesion was performed using a 5 μl Hamilton syringe to deliver either vehicle or human PFF-Synuclein (8 μg) at the following coordinates relative to bregma: AP: +0.5 mm; ML: −2.0 mm; DV: −3.0 mm into the right dorsal striatum according to the stereotaxic atlas (“The mouse brain in stereotaxic coordinates” by Paxinos and Franklin, 1997). After drilling a 1 mm burr-hole in the skull, a 2 μl volume of solution was infused at the target site at the rate of 0.2 μl per minute. The needle was held in place for at least 5 minutes after injection to minimize retrograde flow along the needle tract. […]
At 12 months mice were sacrificed and striatal tissue was micro-dissected, weighed and snap-frozen at −80° C. […] Striatal dopamine (DA) and its metabolites (DOPAC and HVA) were quantified in their stable derivative form in the presence of internal standard 3,4-dihydroxybenzylamine (DHBA) using highly sensitive liquid chromatography-tandem mass spectrometry (LC-MS/MS) as described previously (Park et al., Biol. Pharm. Bull., 2013, vol. 36(2), pp. 252-8). […] For quantitation, one transition per analyte was monitored and two transitions per analyte were monitored for qualitative purposes.

[3] = prophylactic and therapeutic treated mice

CC(C)n1ccc(S(=O)(=O)NC(=O)Nc2c3c(cc4c2CCC4)CCC3)n1 [compound of formula (I)]
amphetamine-induced ipsilateral rotations ([1]; Study C, 3 mg/kg oral gavage QD from 24 hr before surgery): significant protective effect | amphetamine-induced ipsilateral rotations ([1]; Study D, 3 mg/kg oral daily): fewer ipsilateral rotations compared to MCC950 | reduction in amphetamine-induced rotations relative to the 6-OHDA untreated group ([1]; Study D, 3 mg/kg oral daily): 75% | striatal DOPAC compared to the untreated PFF mice [2, 3]: significantly higher | striatal HVA compared to the untreated PFF mice [2, 3]: significantly higher | striatal dopamine concentrations compared with untreated PFF-syn mice ([2]; prophylactic, P<0.02): significantly higher striatal dopamine concentrations | striatal dopamine concentrations compared with untreated PFF-syn mice ([2]; therapeutic, P<0.05): significantly higher striatal dopamine concentrations
